Experimental data as given in ChEMBL document CHEMBL4017476, “Synthesis of novel 5,6-dehydrokawain analogs as osteogenic inducers and their action mechanisms” (Bioorg Med Chem Lett, 2017).
Activity calls are given as the source filed them. No cut-off for these calls is given here.

Key:
MC3T3-E1 [1] = test: Osteogenic activity in mouse MC3T3-E1 cells assessed as increase in mineralization at 30 uM measured after 10 days by alizarin red S staining based assay; type: functional, cell-based
MC3T3-E1 [2] = test: Osteogenic activity in mouse MC3T3-E1 cells assessed as increase in ALP activity at 30 uM measured after 4 days relative to control; type: functional
MC3T3-E1 [3] = test: Cytotoxicity against mouse MC3T3-E1 cells assessed as cell number at 30 uM measured after 4 days by WST-8 assay relative to control; type: cell-based; conditions: mc3t3-e1, 96 h
MC3T3-E1 [4] = test: Osteogenic activity in mouse MC3T3-E1 cells assessed as increase in mineralization at 0.1 to 60 uM measured after 10 days by alizarin red S staining based assay; type: functional, cell-based
[5] = molecular target: T1, MAP kinase p38 (Mus musculus) (UniProt P47811+O08911+Q9WUI1+Q9Z1B7); test: Induction of p38 MAPK phosphorylation in mouse MC3T3-E1 cells assessed as ratio of phosphorylated p38 to unphosphorylated p38 protein level at 30 uM measured after 15 mins by Western blot analysis relative to control; type: cell-based
MC3T3-E1 [6] = test: Osteogenic activity in mouse MC3T3-E1 cells assessed as increase in mineralization at 30 uM measured after 10 days in presence of BMP2 inhibitor noggin by alizarin red S staining based assay; type: functional, cell-based
Mus musculus [7] = species: Mus musculus; test: Activation of BMP signaling pathway in mouse MC3T3-E1 cells assessed as increase in Alpl mRNA expression after 2 days by SYBR green-dye based RT-PCR method; type: cell-based
Mus musculus [8] = species: Mus musculus; test: Activation of BMP signaling pathway in mouse MC3T3-E1 cells assessed as increase in Runx2 mRNA expression after 2 days by SYBR green-dye based RT-PCR method; type: cell-based
Mus musculus [9] = species: Mus musculus; test: Activation of BMP signaling pathway in mouse MC3T3-E1 cells assessed as increase in Alpl mRNA expression at 10 uM after 2 days by SYBR green-dye based RT-PCR method relative to control; type: cell-based
Mus musculus [10] = species: Mus musculus; test: Activation of BMP signaling pathway in mouse MC3T3-E1 cells assessed as increase in Bglap mRNA expression after 2 days by SYBR green-dye based RT-PCR method; type: cell-based
SMAD1/5/9 (Mus musculus) [11] = molecular target: T2, SMAD1/5/9 (Mus musculus) (UniProt P70340+P97454+Q9JIW5); test: Induction of Smad1/5/8 phosphorylation in mouse MC3T3-E1 cells assessed as ratio of phosphorylated Smad1/5/8 to actin beta protein level at 30 uM measured after 5 mins by Western blot analysis relative to control; type: cell-based
RAW264 [12] = test: Inhibition of RANKL-stimulated osteoclastogenesis in mouse RAW264 cells assessed as reduction in TRAP-positive multinucleated cells at 20 uM measured after 72 hrs by TRAP staining based microscopic analysis; type: functional, cell-based
[13] = molecular target: T1, MAP kinase p38 (Mus musculus); test: Induction of p38 MAPK phosphorylation in mouse MC3T3-E1 cells assessed as ratio of phosphorylated p38 to unphosphorylated p38 protein level at 30 uM measured after 30 mins by Western blot analysis relative to control; type: cell-based
MC3T3-E1 [14] = test: Osteogenic activity in mouse MC3T3-E1 cells assessed as increase in mineralization at 30 uM measured after 10 days in presence of type-1 BMP receptor kinase inhibitor LDN-193189 by alizarin red S staining based assay; type: functional, cell-based
MC3T3-E1 [15] = test: Osteogenic activity in mouse MC3T3-E1 cells assessed as increase in mineralization at 30 uM measured after 10 days in presence of p38 MAPK inhibitor SB203580 by alizarin red S staining based assay; type: functional, cell-based
Mus musculus [16] = species: Mus musculus; test: Activation of BMP signaling pathway in mouse MC3T3-E1 cells assessed as increase in Bglap mRNA expression at 10 uM after 2 days by SYBR green-dye based RT-PCR method relative to control; type: cell-based
SMAD1/5/9 (Mus musculus) [17] = molecular target: T2, SMAD1/5/9 (Mus musculus); test: Induction of Smad1/5/8 phosphorylation in mouse MC3T3-E1 cells assessed as ratio of phosphorylated Smad1/5/8 to actin beta protein level at 30 uM measured after 15 mins by Western blot analysis relative to control; type: cell-based
Mus musculus [18] = species: Mus musculus; test: Activation of BMP signaling pathway in mouse MC3T3-E1 cells assessed as increase in Osterix mRNA expression at 10 uM after 2 days by SYBR green-dye based RT-PCR method relative to control; type: cell-based
SMAD1/5/9 (Mus musculus) [19] = molecular target: T2, SMAD1/5/9 (Mus musculus); test: Induction of Smad1/5/8 phosphorylation in mouse MC3T3-E1 cells assessed as ratio of phosphorylated Smad1/5/8 to actin beta protein level at 30 uM measured after 30 mins by Western blot analysis relative to control; type: cell-based
Mus musculus [20] = species: Mus musculus; test: Activation of BMP signaling pathway in mouse MC3T3-E1 cells assessed as increase in Runx2 mRNA expression at 10 uM after 2 days by SYBR green-dye based RT-PCR method relative to control; type: cell-based
[21] = molecular target: T1, MAP kinase p38 (Mus musculus); test: Induction of p38 MAPK phosphorylation in mouse MC3T3-E1 cells assessed as ratio of phosphorylated p38 to unphosphorylated p38 protein level at 30 uM measured after 5 mins by Western blot analysis relative to control; type: cell-based
RAW264 [22] = test: Inhibition of RANKL-stimulated osteoclastogenesis in mouse RAW264 cells assessed as reduction in TRAP activity at 20 uM measured after 72 hrs by microscopic analysis; type: functional, cell-based
Mus musculus [23] = species: Mus musculus; test: Activation of BMP signaling pathway in mouse MC3T3-E1 cells assessed as increase in Osterix mRNA expression after 2 days by SYBR green-dye based RT-PCR method; type: cell-based

| Structure (SMILES) | Activity (MC3T3-E1 [1]) | fold change (FC) (MC3T3-E1 [3]) | Activity (MC3T3-E1 [2]) | further results |
| --- | --- | --- | --- | --- |
| C#Cc1ccc(/C=C/c2cc(OC)cc(=O)o2)cc1 | Active | 0.85 to 1.25 | – | fold change (FC) (MC3T3-E1 [2]): 1.32 - 2.87 |
| COc1cc(/C=C/c2ccc(C)cc2)oc(=O)c1 | Active | 0.85 to 1.25 | Active | – |
| COc1cc(/C=C/c2ccc(Cl)cc2)oc(=O)c1 | Active | 0.85 to 1.25 | – | fold change (FC) (MC3T3-E1 [2]): 1.32 - 2.87 |
| CCCOc1cc(/C=C/c2ccccc2)oc(=O)c1 | inactive | – | – | Activity (MC3T3-E1 [4]): inactive |
| CCc1ccc(/C=C/c2cc(OC)cc(=O)o2)cc1 | Active | 0.85 to 1.25 | – | Ratio [5]: 1.7; Activity (MC3T3-E1 [6]): inactive; Activity (Mus musculus [7]): Dose-dependent effect; Activity (Mus musculus [8]): Dose-dependent effect; fold change (FC) (Mus musculus [9]): 2.23; Activity (Mus musculus [10]): Dose-dependent effect; Ratio (SMAD1/5/9 (Mus musculus) [11]): 1.1; inhibition (RAW264 [12]): Active; Ratio [13]: 1.2; Activity (MC3T3-E1 [14]): inactive; Activity (MC3T3-E1 [15]): inactive; fold change (FC) (Mus musculus [16]): 1.92; Ratio (SMAD1/5/9 (Mus musculus) [17]): 1; fold change (FC) (Mus musculus [18]): 2.61; fold change (FC) (MC3T3-E1 [2]): 1.32 - 2.87; Ratio (SMAD1/5/9 (Mus musculus) [19]): 1; fold change (FC) (Mus musculus [20]): 1.5; Ratio [21]: 1.8; inhibition (RAW264 [22]): Active; Activity (Mus musculus [23]): Dose-dependent effect |
| CCOc1cc(/C=C/c2ccccc2)oc(=O)c1 | inactive | 0.85 to 1.25 | – | Activity (MC3T3-E1 [4]): inactive |
| COc1cc(/C=C/c2ccccc2C)oc(=O)c1 | Active | 0.85 to 1.25 | Active | – |
| COc1cc(/C=C/c2cccc(C)c2)oc(=O)c1 | Active | 0.85 to 1.25 | Active | – |
| COc1cc(/C=C/c2ccccc2)oc(=O)c1C | inactive | 0.85 to 1.25 | – | Activity (MC3T3-E1 [4]): inactive |
| COc1cc(/C=C/c2ccsc2)oc(=O)c1 | inactive | 0.85 to 1.25 | inactive | – |
| CCc1cccc(/C=C/c2cc(OC)cc(=O)o2)c1 | Active | 0.85 to 1.25 | Active | – |
| COc1cc(/C=C/C2CCCC2)oc(=O)c1 | inactive | 0.85 to 1.25 | inactive | – |
